Counter-ions that a name gives are not always drawn.
How the values were obtained:
WT-Integrase = target: T1, WT-Integrase (Human immunodeficiency virus type 1 group M subtype B, UniProt P04585); assay: InSTANT integrase DNA strand transfer functional assay; assay type: biochemical, HIV; details: SPA strand transfer, 15 minutes at 37° C.
T1 construct: assembled PVT SPA beads with WT-Integrase and boitinylated DNA
Protocol: InSTANT is an integrase DNA strand transfer functional assay used to determine potency of InSTIs, which was carried out as described below. 8 μl of SPA buffer (27.8 mM Hepes, 27.8 mM MgCl2, 111.1 μg/mL BSA, 5.56 mM βME, and 57.1 mM NaCl) containing 5 nM 3H-labeled target DNA (prepared separately) and 10 μl of assembled PVT SPA beads with WT-Integrase and boitinylated DNA (prepared separately) were added to the assay plate which contained 0.4 μl of test compound(s) or positive or negative control compound(s) per well. The assay plate was shaken for 1 minute on HT-91002 1.0 MM shaker and then was sealed and incubated for 15 minutes at 37° C. The assay reaction was quenched by adding 4 μl of 1.25 M EDTA to each well of the assay plate with mixing. After incubating the plate at room temperature for 1 hour, the quenched plate was spun at 200 g for 1 minute and read on TopCount (1 minute per well). Percent inhibition was calculated by [1−(Sample−Min)/(Max−Min)]*100. Compound potency IP or IC50 was determined by a 4-parameter dose response curve analysis.

HIV-1 (NL4-3 strain) = assay: ViKinG (Viral Kinetics GFP Reporter) assay for inhibition of HIV replication; assay type: cell-based; details: Human immunodeficiency virus 1, NL43; MT4-GFP cells infected with HIV-1 NL4-3; RPMI + 10% or 50% NHS (not given); infected cells at 48 h / 24 h
Excerpt: The ViKinG (Viral Kinetics GFP Reporter) assay is an in vitro kinetic assay that employs the MT4-gag-GFP reporter cell line (Wang et al., “Assessment of the susceptibility of mutant HIV-1 to antiviral agents.” J Virological Methods 165:230-37 (2010)) to quantify the number of new cells infected in each round of replication. The purpose of the ViKinG assay is to identify agents that inhibit HIV progression. Briefly, HIV infection results in tat transactivation of the stably expressed HIV LTR promoter to drive gagGFP expression. Thus, an increase in the number of GFP-MT4 cells results following HIV infection.
MT4-GFP cells (250,000 cells/m1) were bulk-infected with HIV-1 (NL4-3 strain) at low multiplicity of infection (MOT) in RPMI+10% FBS for 24 hours. Cells were then washed once in RPMI+10% FBS and resuspended RPMI+10% or 50% normal human serum (NHS). Test compounds were serial-diluted in DMSO on an ECHO® liquid handling platform (Labcyte Corp., Sunnyvale, Calif.), along with a triple drug control (integrase, protease and NNRTI compounds). The infected MT4-GFP cells were added to a 384-well poly-D-lysine coated black plate with clear bottom in which the diluted test compounds were placed. The cells were seeded at 8,000 cells per well and the final DMSO concentration was 0.4%. The infected cells (Green GFP cells) were quantified at both 24 and 48 hours post incubation using Acumen® eX3 (TTP Labtech Ltd., Hertfordshire, United Kingdom). Viral reproductive ratio (R0) was determined using the number of infected cells at 48 hours divided by the number of infected cells at 24 hours. Percent viral growth inhibition was calculated by [1−(R−Rtripledrug)/(RDMSO−Rtripledrug)]*100. Compound potency IP or IC50 was determined by a 4-parameter dose response curve analysis.

| SMILES | IC50 (WT-Integrase) | IC50 (HIV-1 (NL4-3 strain)) |
| --- | --- | --- |
| C=C1CN(C)C(=O)c2c1c(=O)c(O)c1n2CCN(Cc2ccc(F)c(Cl)c2)C1=O [Compound 21, 8-(3-chloro-4-fluorobenzyl)-6-hydroxy-2-methyl-4-methylene-3,4,9,10-tetrahydro-1H-pyrazino[1,2-a][1,7]naphthyridine-1,5,7(2H,8H)-trione] | 2 nM | 155 nM |
| Cc1cn(C)c(=O)c2c1c(=O)c(O)c1n2CCN(Cc2ccc(F)c(Cl)c2)C1=O [Compound 22, 8-(3-chloro-4-fluorobenzyl)-6-hydroxy-2,4-dimethyl-9,10-dihydro-1H-pyrazino[1,2-a][1,7]naphthyridine-1,5,7(2H,8H)-trione] | 1 nM | 456 nM |
| CC1COCc2c1c(=O)c(O)c1n2CCN(Cc2ccc(F)c(Cl)c2)C1=O (stereo not shown) [Compound 25] | 21 nM | 351 nM |
| CC(C)c1c(CNC(=O)OC(C)(C)C)n2c(c(O)c1=O)C(=O)N(Cc1ccc(F)c(Cl)c1)CC2 [Compound 31, tert-butyl((2-(3-chloro-4-fluorobenzyl)-9-hydroxy-7-isopropyl-1,8-dioxo-2,3,4,8-tetrahydro-1H-pyrido[1,2-a]pyrazin-6-yl)methyl)carbamate] | 42 nM | 2610 nM |
| CC(C)c1c(CN)n2c(c(O)c1=O)C(=O)N(Cc1ccc(F)c(Cl)c1)CC2 [Compound 32, 6-(aminomethyl)-2-(3-chloro-4-fluorobenzyl)-9-hydroxy-7-isopropyl-3,4-dihydro-1H-pyrido[1,2-a]pyrazine-1,8(2H)-dione trifluoroacetate salt] | 14 nM | 151 nM |
